{
  "source": "patent EP4790066A1",
  "about": "“GLP-1R/GIPR/GCGR TRIPLE AGONIST ANALOGUE AND USE THEREOF” (Shenzhen Bay Laboratory, priority 2023, dated 2025)",
  "key": {"GIPR": {"target": "T1, GIPR (Homo sapiens, UniProt P48546)", "T1 construct": "expressed in transfected cells", "T1 sequence (P48546 22-466)": "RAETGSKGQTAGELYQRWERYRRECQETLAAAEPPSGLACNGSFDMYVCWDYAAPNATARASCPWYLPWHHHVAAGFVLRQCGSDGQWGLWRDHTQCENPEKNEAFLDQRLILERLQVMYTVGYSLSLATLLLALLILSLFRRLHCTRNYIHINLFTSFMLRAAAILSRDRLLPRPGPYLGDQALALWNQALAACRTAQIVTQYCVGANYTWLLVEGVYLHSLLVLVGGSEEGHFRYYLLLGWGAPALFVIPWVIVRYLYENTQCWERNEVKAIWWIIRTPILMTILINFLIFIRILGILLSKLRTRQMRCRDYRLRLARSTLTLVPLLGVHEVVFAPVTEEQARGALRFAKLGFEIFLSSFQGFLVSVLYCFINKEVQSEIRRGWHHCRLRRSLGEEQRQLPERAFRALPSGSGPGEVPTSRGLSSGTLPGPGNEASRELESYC", "experiment": "cAMP method (HTRF cAMP detection kit), HEK293/pGM-CREB-L-Luc/GIP pool", "type": "cell-based", "settings": "read-out: EC50 (pM) for each receptor GIPR"}, "in vivo": {"experiment": "in vivo", "parameters": "species or system adult male cynomolgus monkeys", "settings": "male, cynomolgus monkey, 0.2 mg/kg", "method": "The pharmacokinetic behavior of TG52 in non-rodents was tested. The specific steps are as follows:\nThe target peptide derivative TG52 to be tested was administered to adult male cynomolgus monkeys via subcutaneous and intravenous injections (0.2 mg/kg, with PBS as the drug vehicle) as a single dose, respectively. Whole blood samples were collected from the jugular vein or other appropriate vein at the following time points after administration: for SC, 0 min, 30 min, 1 h, 3 h, 7 h, 24 h, 48 h, 72 h, 120 h, 168 h, 216 h, and 264 h; for IV, 0 min, 5 min, 30 min, 1 h, 3 h, 7 h, 24 h, 48 h, 72 h, 120 h, 168 h, 216 h, and 264 h. 0.2 mL of blood was collected and transferred into a labeled EDTA-K2 anticoagulant tube. The tube was gently inverted to ensure thorough mixing of the anticoagulant (EDTA-K2) with the blood and immediately placed on wet ice. Plasma separation was performed as soon as possible by centrifugation under the following conditions: 4°C, 6800xg, for 6 min. The plasma samples were stored in a refrigerator at no higher than -20°C and used for analysis when needed. Analysis of the drug content in the blood samples was performed using the analytical method described above. Table 5C: Pharmacokinetic parameters of TG52 in cynomolgus monkeys"}},
  "note": "*1 amine or outer side, *2 acyl side, *3 side chain or, on linkers, in order; H or OH if unused. Where a SMILES comes first, the peptide text is derived from it. Bridges are numbered along the chain shown (N, C = ends). [ ]: non-standard residue; d: D form. X1 = O=C(O)CCCCCCCCCCCCCCCCCCC(=O)N[C@@H](CCCCNC(=O)COCCOCCNC(=O)COCCOCCNC(=O)CCC(=O)N(CCNC(=O)C[*:1])CCNC(=O)C[*:2])C(=O)O; Phe(2-F) = N[C@@H](Cc1ccccc1F)C(=O)O; Iva = CC[C@](C)(N)C(=O)O; Aib = CC(C)(N)C(=O)O",
  "data": [
    {"molecule": "CC[C@H](C)[C@@H]1NC(=O)[C@H](Cc2ccccc2)NC(=O)[C@@H](NC(=O)C(C)(C)NC(=O)[C@H](CCC(N)=O)NC(=O)[C@H](C)NC(=O)[C@H](CCCCNC(C)=O)NC(=O)[C@H](CCCCN)NC(=O)[C@H](CC(=O)O)NC(=O)[C@H](CC(C)C)NC(=O)[C@](C)(CC)NC(=O)[C@@H](NC(=O)[C@H](CO)NC(=O)[C@H](Cc2ccc(O)cc2)NC(=O)[C@H](CC(=O)O)NC(=O)[C@H](CO)NC(=O)[C@@H](NC(=O)[C@H](Cc2ccccc2F)NC(=O)[C@@H](NC(=O)CNC(=O)[C@H](CCC(N)=O)NC(=O)C(C)(C)NC(=O)[C@@H](N)Cc2ccc(O)cc2)[C@@H](C)O)[C@@H](C)O)[C@@H](C)CC)CSCC(=O)NCCN(C(=O)CCC(=O)NCCOCCOCC(=O)NCCOCCOCC(=O)NCCCC[C@H](NC(=O)CCCCCCCCCCCCCCCCCCC(=O)O)C(=O)O)CCNC(=O)CSC[C@@H](C(=O)NCC(=O)NCC(=O)N2CCC[C@H]2C(=O)N[C@@H](CO)C(=O)N[C@@H](CO)C(=O)NCC(=O)N[C@@H](C)C(=O)N2CCC[C@H]2C(=O)N2CCC[C@H]2C(=O)N2CCC[C@H]2C(=O)N[C@@H](CO)C(N)=O)NC(=O)[C@H](CC(C)C)NC(=O)[C@H](CC(C)C)NC(=O)[C@H](Cc2ccc(O)cc2)NC(=O)[C@H](CCC(=O)O)NC1=O", "note": "[TG52] (H-Y[Aib]QGT[Phe(2-F)]TSDYSI[Iva]LDKK(Ac)AQ[Aib]CFIEYLLCGGPSSGAPPPS-NH2; linker 21-28 via X1)", "values": [
      {"measurement": "EC50", "setting": "GIPR", "result": 3.8, "unit": "pM"},
      {"measurement": "AUC(0-inf)", "setting": "in vivo; iv", "result": 302, "unit": "µg·h/mL"},
      {"measurement": "AUC(0-t)", "setting": "in vivo; iv", "result": 278, "unit": "µg·h/mL"},
      {"measurement": "Vd", "setting": "in vivo; iv", "result": 0.0626, "unit": "L/kg"},
      {"measurement": "clearance", "setting": "in vivo; iv", "result": 16, "unit": "mL/day/kg"},
      {"measurement": "half-life", "setting": "in vivo; iv", "result": 88.3, "unit": "h"},
      {"measurement": "AUC(0-t)", "setting": "in vivo; sc", "result": 199, "unit": "µg·h/mL"},
      {"measurement": "Cmax", "setting": "in vivo; sc", "result": 1760, "unit": "ng/mL"},
      {"measurement": "Tmax", "setting": "in vivo; sc", "result": 18.3, "unit": "h"},
      {"measurement": "bioavailability", "setting": "in vivo; sc", "result": 75.7, "unit": "%"},
      {"measurement": "half-life", "setting": "in vivo; sc", "result": 97.2, "unit": "h"}
    ]}
  ]
}
